Consider seven compounds from BindingDB's records for doi:10.1021/jm000506s (The R. W. Johnson Pharmaceutical Research Institute, 2001).

The nature of this assay: In vitro antagonist activity against Thrombin induced gel-filtered platelet (GFP) aggregation at 0.15 nM.

`N=C(N)NCCC[C@H](NC(=O)[C@H](Cc1ccc(F)c(F)c1)NC(=O)Nc1ccc2c(CN3CCCC3)cn(Cc3c(Cl)cccc3Cl)c2c1)C(=O)NCc1ccncc1` [2-[2-{3-[1-(2,6-Dichloro-benzyl)-3-pyrrolidin-1-ylmethyl-1H-indol-6-yl]-ureido}-3-(3,4-difluoro-phenyl)-propionylamino]-5-guanidino-pentanoic acid (pyridin-4-ylmethyl)-amide]: the IC50 (commonly the concentration needed to halve the response being measured) was 1060 nM.

Compound `COc1ccc(C[C@H](NC(=O)Nc2ccc3c(CN4CCCC4)cn(Cc4ccc(F)cc4)c3c2)C(=O)N[C@@H](CCCNC(=N)N)C(=O)NCc2ccccc2)cc1` [2-[2-{3-[1-(4-Fluoro-benzyl)-3-pyrrolidin-1-ylmethyl-1H-indol-6-yl]-ureido}-3-(4-methoxy-phenyl)-propionylamino]-5-guanidino-pentanoic acid benzylamide] displayed an IC50 of 2320 nM.

As for `COc1ccc(C[C@H](NC(=O)Nc2ccc3c(CNC4CCCC4)cn(Cc4ccc(F)cc4)c3c2)C(=O)N[C@@H](CCCNC(=N)N)C(=O)NCc2ccccc2)cc1` [2-[2-{3-[3-Cyclopentylaminomethyl-1-(4-fluoro-benzyl)-1H-indol-6-yl]-ureido}-3-(4-methoxy-phenyl)-propionylamino]-5-guanidino-pentanoic acid benzylamide], the IC50 worked out at 17800 nM.

As to `NCC[C@H](NC(=O)[C@H](Cc1ccc(F)c(F)c1)NC(=O)Nc1ccc2c(CN3CCCC3)nn(Cc3c(Cl)cccc3Cl)c2c1)C(=O)NCc1ccccc1` [4-Amino-N-benzyl-2-[2-{3-[1-(2,6-dichloro-benzyl)-3-pyrrolidin-1-ylmethyl-1H-indazol-6-yl]-ureido}-3-(3,4-difluoro-phenyl)-propionylamino]-butyramide], 370 nM corresponded to half-maximal inhibition (IC50).

The compound `COc1ccc(C[C@H](NC(=O)Nc2ccc3c(CN4CCCC4)cn(Cc4ccc(OC(F)(F)F)cc4)c3c2)C(=O)N[C@@H](CCCNC(=N)N)C(=O)NCc2ccccc2)cc1` [5-Guanidino-2-(3-(4-methoxy-phenyl)-2-{3-[3-pyrrolidin-1-ylmethyl-1-(4-trifluoromethoxy-benzyl)-1H-indol-6-yl]-ureido}-propionylamino)-pentanoic acid benzylamide] yielded an IC50 of 18200 nM.

With `N=C(N)NCCC[C@H](NC(=O)[C@H](Cc1ccc(F)c(F)c1)NC(=O)Nc1ccc2c(CN3CCCC3)cn(Cc3c(Cl)cccc3Cl)c2c1)C(=O)NCc1ccccc1` [(S)-2-[(S)-2-{3-[1-(2,6-Dichloro-benzyl)-3-pyrrolidin-1-ylmethyl-1H-indol-6-yl]-ureido}-3-(3,4-difluoro-phenyl)-propionylamino]-5-guanidino-pentanoic acid benzylamide], the IC50 was determined as 570 nM.

Compound `COc1ccc(C[C@H](NC(=O)Nc2ccc3c(CN4CCCC4)cn(Cc4c(Cl)cccc4Cl)c3c2)C(=O)N[C@@H](CCCN=C(N)N)C(=O)NCc2ccccc2)cc1` [RWJ-54003] came in with an IC50 of 900 nM.
